Legend:
[1] = tested on: A2780, Human Ovarian Carcinoma Cell line; assay: Cytotoxicity assay (cell viability, CellTiter 96); format: cell-based; parameters: unit not given beside the values; conditions: ovarian cancer A2780; 10 minutes at 37° C., washed, plated 3 and 6 days
Procedure: (§1) Several human tumor cells bearing human αVβ3/5 integrins were used: (1) A375.S2, human melanoma cell line; (2) MDA-MB-231, Human Breast Carcinoma Cell line; (3) A2780, Human Ovarian Carcinoma Cell line; (4) HT29, Human Colon Carcinoma Cell line; (5) A549, Human Lung Carcinoma Cell line.
(§2) Cell viability was assayed using the CellTiter 96 AQueous One Solution Cell Proliferation Assay from Promega (Cat No. G3581). A Spectra Max 250 plate reader was used, with a reading wavelength of 490 nm. Confocal Microscopy was done using a Nikon, Eelipse, E600. An Eppendorf centrifuge 5804 was used.
(§3) Liposomes bearing 15:1, 40:1, 90:1 and 180:1 alpha-integrin Fab targeting ligands per liposome and containing doxorubicin were prepared as described in Example 1 and 2. These targeted-liposomes were used in the cytotoxicity assay using the various cells lines, as described below.
(§4) Cells were harvested by scraping and then resuspended at 37° C. for 1 hour to obtain individualized cells. About 1 million cells of each tumor type were counted and placed in individual centrifugation tubes. The tubes were centrifuged to obtain a cell pellet. The cells were then incubated with the targeted liposome compositions containing doxorubicin for 10 minutes at 37° C., with mild shaking, 140 rpm. Cells were treated with a quantity of liposomes sufficient to give a doxorubicin concentration of 40 μg/mL. […]

[2] = tested on: A375.S2, human melanoma cell line; assay: Cytotoxicity assay (cell viability, CellTiter 96); format: cell-based; parameters: unit not given beside the values; conditions: 10 minutes at 37° C., washed, plated 3 and 6 days
Procedure: as §1, §2, §3, §4

[3] = tested on: A375.S2 cells; assay: Binding and internalization of liposomes at 37° C., confocal microscopy; format: cell-based, human; conditions: 37° C. for 10 min, washed, incubated 1 hour
Procedure: as §1
Liposomes were prepared as described in Example 1, except in two aspects. First, Dextran Alexa Fluor 488 (Cat No. D-22910, from Molecular Probes) was included in the hydration buffer during the passive encapsulation step of liposome formation, and after the sizing step dialysis was used to remove any unencapsulated Alexa. Second, instead of inserting Fab-PEG-lipid into the liposome bilayer, maleimide-PEG-lipid (MalPEG-DSPE) was inserted into the liposome bilayer at approximately 800 MalPeg-DSPE per liposome at 60° C. for 1 Hr. The insertion step was followed by the conjugation of the Fab to the reactive end of the lipopolymer. The appropriate amount of Fab was added to the MalPEG-DSPE inserted liposomes to achieve a 90:1 anti-alphaV-Fab targeting ligands per liposome ratio. These liposomes were used in the binding and internalization studies described below. […]
A375.S2 cells were harvested by scraping and then resuspended to obtain individualized cells and rejuvenated for 1 hour, at 37° C. About 1 million cells of each tumor type were counted and distributed into individual centrifugation tubes. […]

[4] = tested on: murine melanoma cell line, B16F10; assay: Cytotoxicity assay (cell viability, CellTiter 96), negative control; format: cell-based; parameters: unit not given beside the values; conditions: Murine melanoma B16-F10; 10 minutes at 37° C., washed, plated 3 and 6 days

For `COc1cccc2c1C(=O)c1c(O)c3c(c(O)c1C2=O)C[C@@](O)(C(=O)CO)C[C@@H]3O[C@H]1C[C@H](N)[C@H](O)[C@H](C)O1` [free dox, doxorubicin], the IC50 of doxorubicin [1] was over 200, the IC50 of doxorubicin [2] was over 200 and the “binding and internalization into A375.S2 cells” value [3] was “drug internalization is evident”. It also gave an IC50 of doxorubicin [4] of over 200.

From patent publication US8138315B2, “Anti-alpha V immunoliposome compositions, methods and uses” (Centocor Ortho Biotech Inc., priority 2007, dated 2012)
